Patent publication US9636299B2, “Method for treating diabetic retinopathy” (XAVIER UNIVERSITY OF LOUISIANA, priority 2012, dated 2017)
Residues, ends and D or L forms follow the SMILES beside them.

How the values were obtained:
[1] = test system: LRP-1; test: LRP-1 expression in high sugar induced hRMECs (Western blot); format: cell-based, human; conditions: high sugar induced serum starved hRMECs, 1% apoEdp, 24 hours
Protocol: Using an anti-LRP-1 antibody (human LRP-1; 1:1000, Santa Cruz Biotechnology, CA) and Western blot analysis, selective inhibition of LRP-1 by apoEdp treatment (24 hours) in serum starved hRMECs cells was shown.

[2] = test system: HS; test: Streptozotocin-induced diabetic mice, loss of HS; format: in vivo, mouse; conditions: either 14-day eye drop application or systemic i/p injection
Protocol: Streptozotocin (STZ) induced diabetes. Twelve week old C57Bl/6 mice were used for this study. Mice were induced to have diabetes by intraperitoneal injection of 170 μg/g of streptozotocin (Sigma Aldrich, St. Louis, Mo.). Controls were injected with a vehicle (0.01M sodium citrate buffer). On the third day after STZ treatment, mice tail veins were bled to test the hyperglycemic status using blood sugar detection kit (Lifescan; Johnson & Johnson, Milpitas, Calif.). Mice with blood sugar levels of >300 mg/dL on the third day after STZ treatment were considered diabetic. Eye drop treatment containing 1% apoEdp or vehicle PBS was continued 4 times a day for 14 consecutive days. Intra-peritoneal (i/p) injection containing 40 mg/kg of apoEdp or vehicle control PBS was administered once daily for 14 consecutive days. On the 15th day post-treatment, mice were euthanized, their eyes enucleated, and the retinas dissected out to use for mRNA or Western blot analysis.
Increased vascular permeability in diabetic retinopathy (DR) is reported to result in a concomitant increase of VEGF. The VEGF pathway is known to play a role in breakdown of the BRB through a mechanism involving the down regulation of tight junction proteins in the retinal microvasculature (20).

[3] = Corneal permeability of topical 1% apoEdp eye drops in mice, UPLC-MS of pooled aqueous and vitreous humor; format: in vivo; design: key to Meas'd conc. / Total: *: No peak detected
Protocol: The apoEdp peptide (SEQ ID NO:3) is rich in cationic amino acids, and the inventor postulated that it may cross the cornea into the anterior and posterior chambers of the eye. […] Thus, apoEdp can be used for non-invasive treatment of posterior eye diseases.
A one percent (1%) solution comprising apoEdp in PBS was prepared. This solution was applied bilaterally via eyedropper to the eyes of mice (n=4). The mice were sacrificed at 0, 1, 2, or 3 hours after application of the solution, and the eyes were enucleated. The aqueous and vitreous humor from each eye was collected and pooled, mixed with 1 mL of 0.1% formic acid solution, and allowed to stand for 5 minutes. The samples were then filtered with a 0.2 μm filter and analyzed with the Acquity UPLC system (Waters Corp., Milford, Mass.) with mass spectrophotometric detection.
Initially, the mass range for the peptide was scanned several peaks corresponding to different charged states of the peptide were found. These peaks included 484.9 m/z, 604.4 m/z, and 805.6 m/z. The 484.9 peak was used for the analysis because it was the strongest peak. For the UPLC analysis, a 2.1 mm×100 mm×1.7 μm BEH300 C4 column was used. A two-component mobile phase was used with component 1 (C1): 0.1% formic Acid, and Component 2 (C2): Acetonitrile with 0.1% formic acid. The flow rate was 0.2 mL/min and gradient elution was used with a linear gradient (see TABLE 2). Retention time for the peptide was 4.6 minutes.

[4] = test system: occludin; test: Streptozotocin-induced diabetic mice, retinal occludin protein by Western blot; format: in vivo, mouse; conditions: 14 days
Protocol: Western Blotting. The hRMECs were harvested in M-PER Mammalian Protein Extraction Reagent (Thermo Fisher Scientific, Inc., Rockford, Ill.) containing protease inhibitor cocktail. The total protein concentration was determined using a BCA protein assay kit (Pierce, Rockford, Ill.). Equal amounts of protein were separated by electrophoresis on 5-20% SDS-polyacrylamide gels and transferred electrophoretically onto nitrocellulose membranes (Amersham, Little Chalfont, UK). […] To ensure the equal loading of protein in each lane, each membrane was stripped and re-probed with an antibody against β-actin, and the chemiluminescence was detected as described previously. After scanning the blots with a flatbed scanner, band intensities were analyzed using ImageJ (NIH) and the relative intensity values were normalized to control values. […]
To investigate the effects on the retinal tight junction protein occludin following topical eye drop (1% apoEdp) or systemic i/p injection (40 mg/kg) of apoEdp, retinas from enucleated mouse eyes were processed to harvest total RNA, and then one-step real-time RT-PCR was performed using mice occludin-specific mRNA expression. […] To correlate the occludin-specific mRNA data at a protein level, total proteins extracted from retinas of different experimental groups (FIG. 10) were analyzed using Western-blot to detect occludin-specific protein expression.

[5] = OD (right eye), 0 h after topical 1% apoEdp
[6] = OD (right eye), 1 h after topical 1% apoEdp
[7] = OD (right eye), 2 h after topical 1% apoEdp
[8] = OD (right eye), 3 h after topical 1% apoEdp
[9] = OS (left eye), 1 h after topical 1% apoEdp
[10] = OS (left eye), 2 h after topical 1% apoEdp
[11] = OS (left eye), 3 h after topical 1% apoEdp

Meas'd conc. [3, 5]: * | Total [3, 5]: * | Meas'd conc. [3, 6]: 0.022 µg/mL | Total [3, 6]: 22.2 ng | Meas'd conc. [3, 7]: 0.006 µg/mL | Total [3, 7]: 5.9 ng | Meas'd conc. [3, 8]: 0.036 µg/mL | Total [3, 8]: 36.3 ng | Total ([3]; OS (left eye), 0 h after topical 1% apoEdp): * | Meas'd conc. ([3]; OS (left eye), 0 h after topical 1% apoEdp in PBS, pooled aqueous and vitreous humor): * | Meas'd conc. [3, 9]: * | Total [3, 9]: * | Meas'd conc. [3, 10]: 0.004 µg/mL | Total [3, 10]: 3.89 ng | Meas'd conc. [3, 11]: 0.058 µg/mL | Total [3, 11]: 58.08 ng
SMILES: CC(=O)N[C@@H](CC(C)C)C(=O)N[C@@H](CCCNC(=N)N)C(=O)N[C@@H](CCCCN)C(=O)N[C@@H](CC(C)C)C(=O)N[C@@H](CCCNC(=N)N)C(=O)N[C@@H](CCCCN)C(=O)N[C@@H](CCCNC(=N)N)C(=O)N[C@@H](CC(C)C)C(=O)N[C@@H](CC(C)C)C(=O)N[C@@H](CC(C)C)C(=O)N[C@@H](CCCNC(=N)N)C(=O)N[C@@H](CCCCN)C(=O)N[C@@H](CC(C)C)C(=O)N[C@@H](CCCNC(=N)N)C(=O)N[C@@H](CCCCN)C(=O)N[C@@H](CCCNC(=N)N)C(=O)N[C@@H](CC(C)C)C(=O)N[C@@H](CC(C)C)C(N)=O [apoEdp, Ac-LRKLRKRLLLRKLRKRLL-amide] (Ac-LRKLRKRLLLRKLRKRLL-NH2)
Upregulation of LRP-1 [1]: inhibiting the upregulation | Loss of HS [2]: reversed | Detection of topically-applied apoEdp inside the eye (cornea penetration) ([3]; topical 1% apoEdp): detected inside the eye in as little as one hour after application | Loss of occludin protein in retina ([4]; 1% apoEdp eye drop 4 times a day): significantly attenuated the loss | Loss of occludin protein in retina ([4]; i/p injection 40 mg/kg daily): significantly attenuated the loss
